According to ChEMBL document CHEMBL6071196, “Semisynthetic Tetramate-Containing Fungal Metabolites with Activity against Trichomonas vaginalis and Mycoplasma genitalium” (ACS Med Chem Lett, 2024):
In brackets after ≈: the same amount, converted by molar mass. Activity calls are given as the source filed them. No cut-off for these calls is given here.

Key:
[1] = Selectivity index, ratio of IC50 for cytotoxicity against african green monkey Vero cells incubated for 48 hrs by celltiter blue assay to MIC for antibacterial activity against Mycoplasma genitalium G37C assessed as bacterial growth inhibition incubated for 7 days by phenol red reagent based microbroth dilution assay; type: toxicity, cell-based; details: read-out: Selectivity Index
Mycoplasma genitalium [2] = test: Antibacterial activity against Mycoplasma genitalium G37C assessed as bacterial growth inhibition incubated for 7 days by phenol red reagent based microbroth dilution assay; type: functional; details: Mycoplasmoides genitalium, 168 h, time 7 day
Mycoplasma genitalium [3] = test: Antibacterial activity against Mycoplasma genitalium G37C assessed as growth inhibition at 0.4 uM relative to control; type: functional; details: Mycoplasmoides genitalium
Mycoplasma genitalium [4] = test: Antibacterial activity against Mycoplasma genitalium G37C assessed as growth inhibition at 0.6 uM measured after 1 month relative to control; type: functional, organism-based; details: Mycoplasmoides genitalium, time 1.0 months
Trichomonas vaginalis = test: Anti-trichomonal activity against Trichomonas vaginalis assessed as inhibition of parasite growth incubated for 18 hrs; type: functional, organism-based
[5] = Selectivity index, ratio of IC50 for cytotoxicity against african green monkey Vero cells incubated for 48 hrs by celltiter blue assay to EC50 for anti-trichomonal activity against Trichomonas vaginalis assessed as inhibition of parasite growth incubated for 18 hrs; type: toxicity, cell-based; details: read-out: Ratio IC50/EC50
Mycoplasma genitalium [6] = test: Antibacterial activity against Mycoplasma genitalium G37C assessed as growth inhibition at 3 uM measured after 1 month relative to control; type: functional, organism-based; details: Mycoplasmoides genitalium, time 1.0 months
[7] = Selectivity index, ratio of IC50 for cytotoxicity against african green monkey Vero cells incubated for 48 hrs by celltiter blue assay to IC50 for antibacterial activity against Mycoplasma genitalium Sea-1 assessed as bacterial growth inhibition incubated for 30 mins by qPCR analysis; type: toxicity, cell-based; details: read-out: Ratio IC50
Mycoplasma genitalium [8] = test: Antibacterial activity against Mycoplasma genitalium Sea-1 assessed as bacterial growth inhibition incubated for 30 mins by qPCR analysis; type: functional, organism-based; details: Mycoplasmoides genitalium, Sea-1, 0.5 h
Mycoplasma genitalium [9] = test: Antibacterial activity against Mycoplasma genitalium G37C assessed as bacterial growth inhibition incubated for 30 mins by qPCR analysis; type: functional, organism-based; details: Mycoplasmoides genitalium, 0.5 h
[10] = Selectivity index, ratio of IC50 for cytotoxicity against african green monkey Vero cells incubated for 48 hrs by celltiter blue assay to IC50 for antibacterial activity against Mycoplasma genitalium Sea-2 assessed as bacterial growth inhibition incubated for 30 mins by qPCR analysis; type: toxicity, cell-based; details: read-out: Ratio IC50
Mycoplasma genitalium [11] = test: Antibacterial activity against Mycoplasma genitalium Sea-2 assessed as bacterial growth inhibition incubated for 30 mins by qPCR analysis; type: functional, organism-based; details: Mycoplasmoides genitalium, Sea-2, 0.5 h
[12] = Selectivity index, ratio of IC50 for cytotoxicity against african green monkey Vero cells incubated for 48 hrs by celltiter blue assay to IC50 for antibacterial activity against Mycoplasma genitalium G37C assessed as bacterial growth inhibition incubated for 30 mins by qPCR analysis; type: toxicity, cell-based; details: read-out: Ratio IC50
Mycoplasma genitalium [13] = test: Antibacterial activity against Mycoplasma genitalium G37C assessed as growth inhibition at 2 uM relative to control; type: functional; details: Mycoplasmoides genitalium

| SMILES | selectivity ratio at 48 h [1] | MIC90 (Mycoplasma genitalium [2]) | EC50 (Trichomonas vaginalis) | selectivity ratio at 48 h [5] | other results |
| --- | --- | --- | --- | --- | --- |
| C/C=C/C=C/[C@H]1C(C)=C[C@H]2C[C@@H](C)CC[C@@H]2[C@@]1(C)/C(O)=C1\C(=O)[C@@H](CO)N(C)C1=O | 141 | 0.4 µM (≈ 0.165 µg/mL) | 1800 nM | 32.1 | inhibition at 0.4 µM (Mycoplasma genitalium [3]): 90%; inhibition (Mycoplasma genitalium [4]): inactive |
| C/C=C/C=C/[C@H]1C(C)=C[C@H]2C[C@@H](C)CC[C@@H]2[C@@]1(C)/C(O)=C1\C(=O)[C@H](COCc2cn(CCc3ccc(O)cc3)nn2)N(C)C1=O | 29.7 | 2.6 µM (≈ 1.6 µg/mL) | > 10000 nM |  | inhibition (Mycoplasma genitalium [6]): inactive; selectivity ratio at 48 h [7]: 96; IC50 (Mycoplasma genitalium [8]): 800 nM; IC50 (Mycoplasma genitalium [9]): 1200 nM; selectivity ratio at 48 h [10]: 77; IC50 (Mycoplasma genitalium [11]): 1000 nM; selectivity ratio at 48 h [12]: 64; inhibition at 2 µM (Mycoplasma genitalium [13]): 90% |
| CCCCCC1=C(C)C[C@H]2C[C@@H](C)CC[C@@H]2[C@@]1(C)/C(O)=C1\C(=O)[C@@H](CO)N(C)C1=O | 13.1 | 29.9 µM (≈ 12.5 µg/mL) | > 10000 nM | > 8 |  |
| CC1=C[C@H]2C[C@@H](C)CC[C@@H]2[C@@](C)(/C(O)=C2\C(=O)[C@@H](CO)N(C)C2=O)[C@H]1/C=C/C=C/C[C@@H](C)O | 23.8 | 0.9 µM (≈ 0.412 µg/mL) | 60 nM | 315 |  |
| CCCCC[C@H]1C(C)=C[C@H]2C[C@@H](C)CC[C@@H]2[C@@]1(C)/C(O)=C1\C(=O)[C@@H](CO)N(C)C1=O | 32 | 3.8 µM (≈ 1.59 µg/mL) | 710 nM | > 170 |  |
| C/C=C/C=C/[C@H]1C(C)=C[C@H]2C[C@@H](C)CC[C@@H]2[C@@]1(C)/C(O)=C1\C(=O)[C@@H](COCc2cn(Cc3ccc(C(=O)O)cc3)nn2)N(C)C1=O | 1.5 | 19.9 µM (≈ 12.5 µg/mL) | 2200 nM | 12.8 |  |
| C/C=C/[C@@H]1C=C[C@@H]2C[C@H](C)CC[C@H]2[C@]1(C)/C(O)=C1\C(=O)[C@H](CO)N(C)C1=O | 46.9 | 0.3 µM (≈ 0.112 µg/mL) | 3000 nM | 4.2 |  |
| C/C=C/C=C/[C@H]1C(C)=C[C@H]2C[C@@H](C)CC[C@@H]2[C@@]1(C)/C(O)=C1/C(=O)N[C@H](CO)C1=O | 94.8 | 1 µM (≈ 0.4 µg/mL) | 800 nM | 119 |  |
| CCCCC[C@H]1[C@@H](C)C[C@H]2C[C@@H](C)CC[C@@H]2[C@@]1(C)/C(O)=C1\C(=O)[C@@H](CO)N(C)C1=O | 64 | 0.5 µM (≈ 0.21 µg/mL) | 2100 nM | > 16 |  |
| CCCCC[C@H]1[C@H](C)C[C@H]2C[C@@H](C)CC[C@@H]2[C@@]1(C)/C(O)=C1\C(=O)[C@@H](CO)N(C)C1=O | 51.6 | 3.8 µM (≈ 1.59 µg/mL) | 2700 nM | 72.6 |  |
| C#CCOC[C@@H]1C(=O)/C(=C(/O)[C@@]2(C)[C@@H](/C=C/C=C/C[C@@H](C)O)C(C)=C[C@H]3C[C@@H](C)CC[C@@H]32)C(=O)N1C | 15.1 | 6.3 µM (≈ 3.12 µg/mL) | 3900 nM | 24.3 |  |
